# Reference: ChEMBL document CHEMBL1136278, “Synthesis and anticancer effect of B-ring trifluoromethylated flavonoids” (Bioorg Med Chem Lett, 2003)
# Tested on: SGC-7901
# Assay: In vitro anti-cancer activity against SGC-7901 cell
# Type: functional, cell-based
# Details: Homo sapiens
row,IC50 [µM],Structure (SMILES)
1,21.2,COc1ccc2c(c1)O/C(=C\c1ccc(C(F)(F)F)cc1)C2=O
2,30.8,CCCCCCCOc1cc(OCCCCCCC)c2c(=O)cc(-c3ccc(C(F)(F)F)cc3)oc2c1
3,5.26,C=CCOc1ccc2c(=O)cc(-c3ccc(C(F)(F)F)cc3)oc2c1
4,18.1,CCCCCCCCOc1cc(OCCCCCCCC)c2c(=O)cc(-c3ccc(C(F)(F)F)cc3)oc2c1
5,5.61,CCCOc1ccc2c(=O)cc(-c3ccc(C(F)(F)F)cc3)oc2c1
6,9.02,CCCCCCCCCCOc1cc(OCCCCCCCCCC)c2c(=O)cc(-c3ccc(C(F)(F)F)cc3)oc2c1
7,8.64,CCCOc1cc(OCCC)c2c(=O)c(CCC)c(-c3ccc(C(F)(F)F)cc3)oc2c1
8,6.62,O=c1cc(-c2ccc(C(F)(F)F)cc2)oc2cc(O)cc(O)c12
9,5.35,CCCCCCCOc1ccc2c(c1)O/C(=C\c1ccc(C(F)(F)F)cc1)C2=O
10,3.05,C=CCOc1ccc2c(c1)O/C(=C\c1ccc(C(F)(F)F)cc1)C2=O

# Further lines, the compound ahead of its results:
row,Structure (SMILES),IC50 [µM]
1,O=c1cc(-c2ccc(C(F)(F)F)cc2)oc2cc(O)ccc12,17.8
2,O=c1cc(-c2ccc(C(F)(F)F)cc2)oc2cc(OCc3ccccc3)cc(OCc3ccccc3)c12,5
3,CCOc1cc(OCC)c2c(=O)cc(-c3ccc(C(F)(F)F)cc3)oc2c1,44
4,COc1cc(O)c2c(=O)cc(-c3ccccc3)oc2c1C(F)(F)F,5.9
5,O=C1/C(=C/c2ccc(C(F)(F)F)cc2)Oc2cc(O)ccc21,4.31
6,CCCCCCCCOc1ccc2c(=O)cc(-c3ccc(C(F)(F)F)cc3)oc2c1,4.16
7,CCOc1ccc2c(=O)cc(-c3ccc(C(F)(F)F)cc3)oc2c1,28.5
8,CCOc1ccc2c(c1)O/C(=C\c1ccc(C(F)(F)F)cc1)C2=O,15.6
9,CCOc1cc(OCC)c2c(=O)c(CC)c(-c3ccc(C(F)(F)F)cc3)oc2c1,72.5
10,CCCOc1cc(OCCC)c2c(=O)cc(-c3ccc(C(F)(F)F)cc3)oc2c1,2.7
11,COc1cc(OC)c2c(=O)cc(-c3ccc(C(F)(F)F)cc3)oc2c1,4.37
12,CC(=O)Oc1c(C(F)(F)F)c(O)c2c(=O)cc(-c3ccccc3)oc2c1C(F)(F)F,8.6
13,COc1ccc2c(=O)cc(-c3ccc(C(F)(F)F)cc3)oc2c1,8.28
14,O=C1/C(=C/c2ccc(C(F)(F)F)cc2)Oc2cc(OCc3ccccc3)ccc21,14.7
15,COc1cc(OC)c2c(=O)c(C)c(-c3ccc(C(F)(F)F)cc3)oc2c1,10.1
